In assay [1] the target is human PCSK9 / human LDLR EGFa domain interaction (Homo sapiens (Human), UniProt Q8NBP7). Kind of assay: TR-FRET assay of inhibition of the PCSK9-LDLR protein-protein interaction. The class given is binding. The essentials:
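Inhibition of PCSK9 binding to the LDLR EGFa domain, each protein at 20 nM, detected by TR-FRET using streptavidin and anti-His donor/acceptor labels (5 nM). Two-hour room-temperature incubation in calcium-containing HEPES buffer.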
On the technique in general: TR-FRET usually uses a lanthanide donor and a delayed reading to cut background.

A further assay addresses PCSK9 (Homo sapiens (Human), UniProt Q8NBP7). Description: PCSK9 Alexa FRET Standard assay (displacement of AlexaFluor647 tagged cyclic peptide Reagent A). The class given is binding. The method in brief:
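TR-FRET displacement: 0.5 nM biotinylated PCSK9 with 1.25 nM Strep-Eu and 20 nM AlexaFluor-tagged cyclic peptide (final) in 50 mM HEPES pH 7.4, 0.15 M NaCl, 5 mM CaCl2, 0.01% BSA, 0.01% P20, ≥2 h at room temperature. IC50 from sigmoidal fit, converted to Ki via peptide KD; falling Eu counts flagged false positives.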

The mark [2] stands for this setting: TR-FRET, 20 nM human PCSK9, 20 nM human LDLR EGFa domain, 2 hours room temperature, read-out: IC50.
[3] abbreviates: PCSK9 Alexa FRET Standard assay, 0.5 nM PCSK9, 20 nM AF cyclic peptide Reagent A, read-out: IC50.

Broadly, the IC50 is the concentration that gives 50% inhibition.

Where two headings read alike, the source gives them in different places. Starred links: 1 amine or outer side, 2 acyl side, 3 side chain; linkers in the order of their positions; H or OH if unused. Positions of bridges follow the written chain, without caps; N, C: chain ends. Non-standard residues stand in square brackets, D forms with d. Residues, ends and D or L forms follow the SMILES beside them. Phe(4-COOH) = N[C@@H](Cc1ccc(C(=O)O)cc1)C(=O)O; Trp(5-F) = N[C@@H](Cc1c[nH]c2ccc(F)cc12)C(=O)O; Tyr(3-Cl) = N[C@@H](Cc1ccc(O)c(Cl)c1)C(=O)O; Bip = N[C@@H](Cc1ccc(-c2ccccc2)cc1)C(=O)O; NMeW = CN[C@@H](Cc1c[nH]c2ccccc12)C(=O)O; Dip = N[C@H](C(=O)O)C(c1ccccc1)c1ccccc1; X36 = O=C([C@H](CC1=NC=NC1)N[*:1])[*:2]; X4 = O=C(CCSCc1cccc(CSCCN[*:1])c1)[*:2]; mXylylene = c1cc(C[*:1])cc(C[*:2])c1; AEF = NCCOc1ccc(C[C@H](N)C(=O)O)cc1; NMeY = CN[C@@H](Cc1ccc(O)cc1)C(=O)O; hPhe = N[C@@H](CCc1ccccc1)C(=O)O; NMeD = CN[C@@H](CC(=O)O)C(=O)O; αMeP = C[C@@]1(C(=O)O)CCCN1; Orn = NCCC[C@H](N)C(=O)O; Ac3c = NC1(C(=O)O)CC1; Mpa = O=C(O)CCS

Chain of human PCSK9 / human LDLR EGFa domain interaction (Q8NBP7 153-692): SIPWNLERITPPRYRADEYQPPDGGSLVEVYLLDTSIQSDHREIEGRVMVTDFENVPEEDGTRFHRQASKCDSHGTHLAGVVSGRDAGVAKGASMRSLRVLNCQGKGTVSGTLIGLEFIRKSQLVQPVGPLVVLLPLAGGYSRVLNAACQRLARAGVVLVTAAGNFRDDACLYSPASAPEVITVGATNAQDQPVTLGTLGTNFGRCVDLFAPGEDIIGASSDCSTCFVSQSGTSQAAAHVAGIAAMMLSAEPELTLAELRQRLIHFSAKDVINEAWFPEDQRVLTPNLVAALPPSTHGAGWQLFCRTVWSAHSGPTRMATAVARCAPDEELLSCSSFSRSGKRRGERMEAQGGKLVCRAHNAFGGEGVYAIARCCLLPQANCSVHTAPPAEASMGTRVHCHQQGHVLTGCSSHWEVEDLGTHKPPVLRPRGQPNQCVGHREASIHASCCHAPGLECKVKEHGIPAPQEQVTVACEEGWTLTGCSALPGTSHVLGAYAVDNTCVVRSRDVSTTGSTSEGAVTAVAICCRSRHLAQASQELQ
Chain of human PCSK9 / human LDLR EGFa domain interaction (Q8NBP7 31-152 partner): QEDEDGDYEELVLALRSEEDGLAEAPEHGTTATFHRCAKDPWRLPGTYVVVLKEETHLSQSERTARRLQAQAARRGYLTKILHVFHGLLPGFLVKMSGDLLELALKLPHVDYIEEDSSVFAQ
Chain of PCSK9 (Q8NBP7 153-692): as the sequence (Q8NBP7 153-692) above

For the molecule `NCCCC[C@@H]1NC(=O)CCSCc2cccc(c2)CSC[C@@H](C(N)=O)NC(=O)[C@@H]2CCCN2C(=O)[C@H](Cc2ccc(O)cc2)NC(=O)[C@H](Cc2c[nH]cn2)NC(=O)[C@H](CC(=O)O)NC(=O)[C@H](Cc2c[nH]c3ccc(F)cc23)NC(=O)[C@H](Cc2c[nH]c3ccc(F)cc23)NC(=O)CNC1=O` [Compound 149] ([Mpa]KG[Trp(5-F)][Trp(5-F)]DHYPC-NH2; linker 1-10 via mXylylene), the concentration for half-maximal inhibition (IC50) (in assay [1] (setting [2]); on PCSK9 (setting [3])) was 1000 to 12100 nM each time.
Consider `CN1C(=O)[C@H](Cc2c[nH]c3ccc(F)cc23)NC(=O)[C@H](Cc2c[nH]c3ccc(F)cc23)NC(=O)CNC(=O)[C@H](CCCCN)NC(=O)CCSCc2cccc(c2)CSC[C@@H](C(N)=O)NC(=O)[C@@H]2CCCN2C(=O)[C@H](Cc2ccc(O)cc2)NC(=O)[C@H](Cc2cnc[nH]2)NC(=O)[C@@H]1CC(=O)O` [Compound 171] ([Mpa]KG[Trp(5-F)][Trp(5-F)][NMeD]HYPC-NH2; linker 1-10 via mXylylene), for which the figures for the IC50 (in assay [1] (setting [2]); on PCSK9 (setting [3])) were 0.1 to 100 nM and 100 to 1000 nM, respectively.
As to `NCCCC[C@@H]1NC(=O)CCSCc2cccc(c2)CSC[C@@H](C(N)=O)NC(=O)[C@@H]2CCCN2C(=O)[C@H](Cc2ccc(O)cc2)NC(=O)[C@H](Cc2c[nH]cn2)NC(=O)[C@H](CC(=O)O)NC(=O)[C@H](Cc2c[nH]c3ccc(F)cc23)NC(=O)[C@H](Cc2ccc(-c3ccccc3)cc2)NC(=O)CNC1=O` [Compound 210] ([Mpa]KG[Bip][Trp(5-F)]DHYPC-NH2; linker 1-10 via mXylylene), the IC50 (in assay [1] (setting [2]); on PCSK9 (setting [3])) was 1000 to 12100 nM each time.
`C[C@@H](O)[C@@H]1NC(=O)[C@H](Cc2c[nH]c3ccc(F)cc23)NC(=O)[C@H](Cc2c[nH]c3ccc(F)cc23)NC(=O)CNC(=O)[C@H](CCCCN)NC(=O)CCSCc2cccc(c2)CSC[C@@H](C(N)=O)NC(=O)[C@@H]2CCCN2C(=O)[C@H](Cc2ccc(O)cc2)NC(=O)[C@H](Cc2c[nH]cn2)NC1=O` [Compound 224] ([Mpa]KG[Trp(5-F)][Trp(5-F)]THYPC-NH2; linker 1-10 via mXylylene): the half-inhibitory concentration (IC50) (in assay [1] (setting [2]); at PCSK9 (setting [3])) was 100 to 1000 nM in each case.
As for `NCCCC[C@@H]1NC(=O)CCSCc2cccc(c2)CSC[C@@H](C(N)=O)NC(=O)[C@@H]2CCCN2C(=O)[C@H](Cc2ccc(O)cc2)NC(=O)[C@H](Cc2c[nH]cn2)NC(=O)[C@H](CC(=O)O)NC(=O)[C@H](CCc2ccccc2)NC(=O)[C@H](Cc2c[nH]c3ccc(F)cc23)NC(=O)CNC1=O` [Compound 244] ([Mpa]KG[Trp(5-F)][hPhe]DHYPC-NH2; linker 1-10 via mXylylene), the IC50 (in assay [1] (setting [2]); at PCSK9 (setting [3])) was 100 to 1000 nM throughout.
For the molecule `C[C@H]1NC(=O)[C@H](CCCCN)NC(=O)CCSCc2cccc(c2)CSCCNC(=O)[C@]2(C)CCCN2C(=O)[C@H](Cc2ccc(O)c(Cl)c2)NC(=O)[C@H](Cc2cnc[nH]2)NC(=O)[C@H](CC(=O)O)NC(=O)[C@H](Cc2c[nH]c3ccc(F)cc23)NC(=O)[C@H](Cc2c[nH]c3ccc(F)cc23)NC1=O` [Compound 246] (cyclo(DH[Tyr(3-Cl)][αMeP][X4]K[dA][Trp(5-F)][Trp(5-F)])), the figures for the IC50 (in assay [1] (setting [2]); on PCSK9 (setting [3])) were 100 to 1000 nM and 1000 to 12100 nM, respectively.
In the case of `C[C@@]12CCCN1C(=O)[C@H](Cc1ccc(O)cc1)NC(=O)[C@H](Cc1cnc[nH]1)NC(=O)[C@H](CC(=O)O)NC(=O)[C@H](Cc1c[nH]c3ccc(F)cc13)NC(=O)[C@H](Cc1c[nH]c3ccc(F)cc13)NC(=O)CNC(=O)[C@H](CCCN)NC(=O)CCSCc1cccc(c1)CSC[C@@H](C(N)=O)NC2=O` [Compound 248] ([Mpa][Orn]G[Trp(5-F)][Trp(5-F)]DHY[αMeP]C-NH2; linker 1-10 via mXylylene), the IC50 was in the range of 0.1 to 100 nM in assay [1] (setting [2]) and 100 to 1000 nM at PCSK9 (setting [3]).
`CC(=O)N[C@@H]1CCCCNC(=O)c2ccc(cc2)C[C@@H](C(N)=O)NC(=O)[C@]2(C)CCCN2C(=O)[C@H](Cc2ccc(O)cc2)NC(=O)[C@H](Cc2cnc[nH]2)NC(=O)[C@H](CC(=O)O)NC(=O)[C@H](Cc2c[nH]c3ccc(F)cc23)NC(=O)[C@H](Cc2c[nH]c3ccc(F)cc23)NC(=O)CNC1=O` [Compound 255] (Ac-[dK]G[Trp(5-F)][Trp(5-F)]DHY[αMeP][Phe(4-COOH)]-NH2; lactam 1-9): the half-inhibitory concentration (IC50) (in assay [1] (setting [2]); on PCSK9 (setting [3])) was 100 to 1000 nM in each case.
Consider `NCCCC[C@@H]1NC(=O)CCSCc2cccc(c2)CSC[C@@H](C(N)=O)NC(=O)[C@@H]2CCCN2C(=O)[C@H](Cc2ccc(OCCN)cc2)NC(=O)[C@H](Cc2c[nH]cn2)NC(=O)[C@H](CC(=O)O)NC(=O)[C@H](Cc2c[nH]c3ccc(F)cc23)NC(=O)[C@H](Cc2c[nH]c3ccc(F)cc23)NC(=O)CNC1=O` [Compound 265] ([Mpa]KG[Trp(5-F)][Trp(5-F)]DH[AEF]PC-NH2; linker 1-10 via mXylylene), for which the half-inhibitory concentration (IC50) (in assay [1] (setting [2]); on PCSK9 (setting [3])) was 100 to 1000 nM throughout.
As for `COc1ccc(C[C@@H]2NC(=O)[C@H](CC3=NC=NC3)NC(=O)[C@H](CC(=O)O)NC(=O)[C@H](Cc3c[nH]c4ccc(F)cc34)NC(=O)[C@H](C(c3ccccc3)c3ccccc3)NC(=O)[C@@H](C)NC(=O)[C@H](CCCCN)NC(=O)CCSCc3cccc(c3)CSCCNC(=O)[C@]3(C)CCCN3C2=O)cc1` [Compound 275] (cyclo(D[X36]Y(Me)[αMeP][X4]K[dA][Dip][Trp(5-F)])), the results for the IC50 (in assay [1] (setting [2]); at PCSK9 (setting [3])) were 0.1 to 100 nM and 0.11 to 100 nM, respectively.
In the case of `C[C@H]1NC(=O)[C@H](CCCCN)NC(=O)CCSCc2cccc(c2)CSCCNC(=O)[C@]2(C)CCCN2C(=O)[C@H](Cc2ccc(O)cc2)N(C)C(=O)[C@H](Cc2c[nH]cn2)NC(=O)[C@H](CC(=O)O)NC(=O)[C@H](Cc2c[nH]c3ccc(F)cc23)NC(=O)[C@H](Cc2c[nH]c3ccccc23)N(C)C1=O` [Compound 276] (cyclo(DH[NMeY][αMeP][X4]K[dA][NMeW][Trp(5-F)])), the IC50 lay within 0.1 to 100 nM in assay [1] and 100 to 1000 nM at PCSK9 (IC50).
Take `C[C@@]12CCCN1C(=O)[C@H](Cc1ccc(O)cc1)NC(=O)[C@H](Cc1c[nH]cn1)NC(=O)[C@H](CC(=O)O)NC(=O)[C@H](Cc1c[nH]c3ccc(F)cc13)NC(=O)[C@H](Cc1c[nH]c3ccc(F)cc13)NC(=O)CNC(=O)C1(CC1)NC(=O)CCSCc1cccc(c1)CSC[C@@H](C(N)=O)NC2=O` [Compound 281] ([Mpa][Ac3c]G[Trp(5-F)][Trp(5-F)]DHY[αMeP]C-NH2; linker 1-10 via mXylylene): the values for the IC50 (in assay [1] (setting [2]); at PCSK9 (setting [3])) were 0.1 to 100 nM and 100 to 1000 nM, respectively.
For the molecule `CC(=O)N[C@H]1CC(=O)NCCOc2ccc(cc2)C[C@@H](C(N)=O)NC(=O)[C@]2(C)CCCN2C(=O)[C@H](Cc2ccc(O)cc2)NC(=O)[C@H](Cc2c[nH]cn2)NC(=O)[C@H](CC(=O)O)NC(=O)[C@H](Cc2c[nH]c3ccc(F)cc23)NC(=O)[C@H](Cc2c[nH]c3ccc(F)cc23)NC(=O)CNC(=O)[C@H](C)NC1=O` [Compound 310] (Ac-DAG[Trp(5-F)][Trp(5-F)]DHY[αMeP][AEF]-NH2; lactam 1-10), the IC50 (in assay [1] (setting [2]); at PCSK9 (setting [3])) was 1000 to 12100 nM each time.
Consider `CC(=O)N[C@H]1CCC(=O)NCCOc2ccc(cc2)C[C@@H](C(N)=O)NC(=O)[C@]2(C)CCCN2C(=O)[C@H](Cc2ccc(O)cc2)NC(=O)[C@H](Cc2c[nH]cn2)NC(=O)[C@H](CC(=O)O)NC(=O)[C@H](Cc2c[nH]c3ccc(F)cc23)NC(=O)[C@H](Cc2c[nH]c3ccc(F)cc23)NC(=O)CNC(=O)[C@H](C)NC1=O` [Compound 311] (Ac-EAG[Trp(5-F)][Trp(5-F)]DHY[αMeP][AEF]-NH2; lactam 1-10), for which the IC50 fell in the range of 100 to 1000 nM in assay [1] (setting [2]) and 1000 to 12100 nM on PCSK9 (setting [3]).

These data come from patent US11530244B2, “Cyclic polypeptides for PCSK9 inhibition” (priority 2018, dated 2022).
